Reference: the NIST ThermoML archive (doi:10.1016/j.fluid.2007.07.066)
± gives the expanded uncertainty stated by the source.

Assay: mn = molality of the nth substance listed, in mol/kg
Conditions: 101 kPa, Liquid; for speed of sound: Sing-around technique in a fixed-path interferometer; for molar conductivity: dip type immersion conductance cell

O=P([O-])([O-])O.[Na+].[Na+] [disodium hydrogen phosphate] + O
Conditions	mass density [kg/m3]	molar conductivity [S·m2/mol]	speed of sound [m/s]
293.15 K, m1 = 0.1066	1012.65 ± 0.22	–	–
293.15 K, m1 = 0.181	1022.47 ± 0.23	–	–
293.15 K, m1 = 0.2454	1030.81 ± 0.25	–	–
293.15 K, m1 = 0.2498	1031.37 ± 0.23	–	–
293.15 K, m1 = 0.2939	1037.06 ± 0.25	–	–
293.15 K, m1 = 0.3192	1040.28 ± 0.25	–	–
293.15 K, m1 = 0.3723	1046.93 ± 0.26	–	–
293.15 K, m1 = 0.4483	1056.39 ± 0.27	–	–
293.15 K, m1 = 0.6185	1077.21 ± 0.3	–	–
293.15 K, m1 = 0.7841	1096.81 ± 0.33	–	–
298.15 K, m1 = 0.0049	–	0.01921 ± 0.00019	–
298.15 K, m1 = 0.007	998.012 ± 0.2	–	1498 ± 0.82
298.15 K, m1 = 0.0104	998.476 ± 0.21	0.01802 ± 0.00018	1498.7 ± 0.82
298.15 K, m1 = 0.0141	998.988 ± 0.19	–	1499.3 ± 0.82
298.15 K, m1 = 0.0154	–	0.01735 ± 0.00017	–
298.15 K, m1 = 0.0211	–	0.0167 ± 0.00017	–
298.15 K, m1 = 0.032	1001.4 ± 0.2	–	1502.5 ± 0.82
298.15 K, m1 = 0.0386	1002.28 ± 0.2	–	1503.7 ± 0.82
298.15 K, m1 = 0.0411	1002.63 ± 0.21	–	1504.1 ± 0.82
298.15 K, m1 = 0.0413	–	0.01534 ± 0.00015	–
298.15 K, m1 = 0.0496	1003.78 ± 0.21	–	1505.6 ± 0.82
298.15 K, m1 = 0.0632	1005.6 ± 0.21	–	1508 ± 0.83
298.15 K, m1 = 0.0712	–	0.014 ± 0.00014	–
298.15 K, m1 = 0.0737	1007 ± 0.21	–	1509.8 ± 0.83
298.15 K, m1 = 0.1066	1011.35 ± 0.21	0.01306 ± 0.00013	1515.3 ± 0.83
298.15 K, m1 = 0.1437	–	0.01234 ± 0.00012	–
298.15 K, m1 = 0.181	1021.07 ± 0.23	–	1527.7 ± 0.83
298.15 K, m1 = 0.1927	–	0.0116 ± 0.00012	–
298.15 K, m1 = 0.2454	1029.34 ± 0.24	–	1538 ± 0.84
298.15 K, m1 = 0.2475	–	0.011 ± 0.00011	–
298.15 K, m1 = 0.2498	1029.9 ± 0.23	–	1538.6 ± 0.84
298.15 K, m1 = 0.2939	1035.53 ± 0.24	–	1545.8 ± 0.84
298.15 K, m1 = 0.3192	1038.73 ± 0.25	–	1549.8 ± 0.84
298.15 K, m1 = 0.3697	–	0.00986 ± 9.9e-05	–
298.15 K, m1 = 0.3723	1045.32 ± 0.26	–	1558 ± 0.84
298.15 K, m1 = 0.4438	–	0.009224 ± 9.2e-05	–
298.15 K, m1 = 0.4483	1054.71 ± 0.27	–	1569.7 ± 0.85
298.15 K, m1 = 0.5295	–	0.008621 ± 8.6e-05	–
298.15 K, m1 = 0.6125	–	0.00816 ± 8.2e-05	–
298.15 K, m1 = 0.6185	1075.38 ± 0.3	–	1595.4 ± 0.86
298.15 K, m1 = 0.6768	–	0.00778 ± 7.8e-05	–
298.15 K, m1 = 0.7479	–	0.007445 ± 7.4e-05	–
298.15 K, m1 = 0.7841	1094.86 ± 0.33	–	1619.8 ± 0.86
298.15 K, m1 = 0.8346	–	0.00706 ± 7.1e-05	–
298.15 K, m1 = 0.9695	–	0.006536 ± 6.5e-05	–
303.15 K, m1 = 0.007	996.606 ± 0.21	–	1510.4 ± 0.83
303.15 K, m1 = 0.0104	997.065 ± 0.21	–	1511 ± 0.83
303.15 K, m1 = 0.0141	997.573 ± 0.21	–	1511.7 ± 0.83
303.15 K, m1 = 0.032	999.963 ± 0.2	–	1514.7 ± 0.83
303.15 K, m1 = 0.0386	1000.84 ± 0.2	–	1515.9 ± 0.83
303.15 K, m1 = 0.0411	1001.18 ± 0.2	–	1516.3 ± 0.83
303.15 K, m1 = 0.0496	1002.33 ± 0.2	–	1517.8 ± 0.83
303.15 K, m1 = 0.0632	1004.12 ± 0.2	–	1520.1 ± 0.83
303.15 K, m1 = 0.0737	1005.51 ± 0.21	–	1521.8 ± 0.83
303.15 K, m1 = 0.1066	1009.83 ± 0.21	–	1527.2 ± 0.83
303.15 K, m1 = 0.181	1019.47 ± 0.22	–	1539.2 ± 0.84
303.15 K, m1 = 0.2454	1027.67 ± 0.23	–	1549.2 ± 0.84
303.15 K, m1 = 0.2498	1028.22 ± 0.23	–	1549.9 ± 0.84
303.15 K, m1 = 0.2939	1033.82 ± 0.24	–	1556.8 ± 0.84
303.15 K, m1 = 0.3192	1036.99 ± 0.24	–	1560.7 ± 0.84
303.15 K, m1 = 0.3723	1043.54 ± 0.25	–	1568.7 ± 0.85
303.15 K, m1 = 0.4483	1052.87 ± 0.27	–	1580.1 ± 0.85
303.15 K, m1 = 0.6185	1073.41 ± 0.29	–	1605.1 ± 0.86
303.15 K, m1 = 0.7841	1092.78 ± 0.32	–	1628.8 ± 0.87
